Measurements from publication PMC12234328, “A naphthalimide derivative exerts potent antiplatelet and antithrombotic activities without a bleeding tendency” (Frontiers in Pharmacology, 2025).

Experiments:
[1] = tested on: collagen/epinephrine-induced pulmonary thrombosis; assay: Collagen/epinephrine-induced pulmonary embolism in mice; assay type: in vivo; conditions: 1.2 mg/kg i.v., relative to DMSO group
Procedure: Pulmonary embolism was induced using collagen and epinephrine in […] ICR mice according. Briefly, mice were intravenously injected with a bolus dose of DMSO (1.1 g/kg, solvent control), compound 6 (1.2 mg/kg), or aspirin (20 mg/kg, positive control). Subsequently, a mixture of collagen (0.6 mg/kg) and epinephrine (0.2 mg/kg) was administered via the tail vein. When respiration became severely weakened but the heart was still beating, 0.5 mL of Evans blue solution (1% in saline) was injected into the heart. The lungs were then excised and photographed. Mouse mortality was monitored for 24 h, and all surviving mice were euthanized immediately after the experiment. Each group consisted of six animals.
FIGURE 4 Effects of compound 6 on collagen/epinephrine-induced pulmonary thrombosis and FeCl3-induced thrombosis in mesenteric artery. Mice were intravenously administered with DMSO (solvent control), compound 6 (1.2 mg/kg), or aspirin (20 mg/kg, positive control) for 10 min (A) Mice were injected with collagen/epinephrine to induce pulmonary embolism, which was detected through staining with Evans blue (left panel). The survival rate was recorded for 24 h (right panel). […]
(A) Mice were injected with collagen/epinephrine to induce pulmonary embolism, which was detected through staining with Evans blue. (B) The survival rate was recorded for 24 h. […]

[2] = tested on: human platelet suspensions stimulated with U46619; assay: U46619-induced platelet aggregation; assay type: cell-based; conditions: 5–50 μM, 1 μM U46619
Text: (§1) This study received approval from the Taipei Medical University–Joint Institutional Review Board (TMU-JIRB-No. N202003148) and adhered to the principles of the Declaration of Helsinki. Informed consent was obtained from all volunteers before their participation. Human platelets were washed and prepared according to previously established methods ([Lu et al., 2019]). Whole blood was collected from healthy participants who had not taken any medications, including nonsteroidal anti-inflammatory drugs or aspirin, in the preceding 2 weeks. The blood was drawn into polypropylene tubes containing an acid citrate–dextrose solution (9:1, v/v). After mixing, the samples were centrifuged at 120 g for 10 min. The upper layer of platelet-rich plasma was collected and supplemented with prostaglandin E1 and heparin. Following further centrifugation at 500 g for 10 min, the platelet pellets were washed twice. The platelets were then resuspended in Tyrode’s solution containing 3.5 mg/mL bovine serum albumin (B.S.A.) to create platelet suspensions. The final Ca^2+ concentration of the platelet suspensions (3.6 × 10^8 cells/mL) was 1 mM.
(§2) Platelet aggregation was measured using a lumi-aggregometer (Payton, Scarborough, Canada) through the turbidimetric method ([Lu et al., 2019]). […] Subsequently, various agonists were added and platelet aggregation was then recorded for an additional 6 min. […]

[3] = tested on: human platelet suspensions stimulated with convulxin; assay: Convulxin-induced platelet aggregation; assay type: cell-based; conditions: 10–50 μM, convulxin 4 ng/mL
Text: as §1, §2

[4] = tested on: collagen-triggered ATP release in human platelets; assay: ATP release in human platelet suspensions (luciferase/luciferin); assay type: cell-based; conditions: 2.5 and 5 μM, collagen 1 μg/mL, n = 4
Procedure: Adenosine triphosphate (ATP) release and calcium mobilization were assessed as previously described ([Shih et al., 2021]). Luciferase–luciferin and Fura-2 AM were used to detect ATP release and calcium mobilization, respectively. The intensity of luminescence (indicating ATP release) and the fluorescence ratio (340 nm/380 nm) for calcium mobilization were measured using a Hitachi Spectrometer F-7000 (Tokyo, Japan) following the manufacturer’s instructions.
FIGURE 8 Effects of compound 6 on ATP release, calcium mobilization, and GPIIb–IIIa activation triggered by collagen in human platelets. Washed platelets (3.6 × 10^8 cells/mL) were treated with compound 6 (C6, 2.5 and 5 μM) or DMSO and then stimulated with collagen (1 μg/mL) to trigger ATP release (A), calcium mobilization (B), and GPIIb–IIIa activation (C) that were detected using luciferase/luciferin, Fura-2 AM, and APC–PAC1 antibodies, respectively. Data (A–C) are presented as means ± SEM (n = 4). **p < 0.01 and ***p < 0.001 compared with the resting group. #p < 0.05, ##p < 0.01, and ###p < 0.001 compared with the DMSO (solvent control) group.

[5] = tested on: human platelet suspensions stimulated with thrombin; assay: Thrombin-induced platelet aggregation; assay type: cell-based; conditions: 5–50 μM, 0.02 U/mL thrombin
Text: as §1, §2

[6] = tested on: human platelet suspensions stimulated with collagen; assay: Collagen-induced platelet aggregation (turbidimetric, lumi-aggregometer); assay type: cell-based
Text: as §1
Platelet aggregation was measured using a lumi-aggregometer (Payton, Scarborough, Canada) through the turbidimetric method ([Lu et al., 2019]). Human platelet suspensions (3.6 × 10^8 cells/mL) were treated with compound 6 (1–50 μM) or an isovolumetric solvent control (0.1% DMSO) for 3 min. Subsequently, various agonists were added and platelet aggregation was then recorded for an additional 6 min.
FIGURE 2 Effects of compound 6 on human platelet aggregation triggered by various agonists. (A–C) Washed platelets (3.6 × 10^8 cells/mL) were treated with compound 6 (1–50 μM) or dimethyl sulfoxide (DMSO; solvent control) before adding 1 μg/mL collagen (A), 0.02 U/mL thrombin (B), and 1 μM U46619 (C). Panels A–C present the curve of platelet aggregation, and panel D presents the statistical analysis of panels A–C. Data (D) are presented as means ± SEM (n = 4). ###p < 0.001 compared with the DMSO group.

With `CCCCN1C(=O)c2cccc3c(NCCNC(=O)C45CC6CC(CC(C6)C4)C5)ccc(c23)C1=O` [compound 6] the “Collagen/epinephrine-induced pulmonary thrombosis (Evans blue staining of lung)” value [1] was “could prevent”, the “Effect on U46619-induced platelet aggregation” value [2] was “did not significantly affect” and the “Effect on convulxin-induced platelet aggregation” value [3] was “can inhibit convulxin-induced platelet aggregation”. The “Collagen-triggered ATP release” value [4] was “markedly reduced”, the “Effect on thrombin-induced platelet aggregation” value [5] was “did not significantly affect” and the “Antiplatelet effect at the same concentration, compound 6 versus compound 5” value ([6]; 5 μM, collagen 1 μg/mL, Supplementary Figure S1) was “better antiplatelet effects than compound 5”. For the same compound, the IC50 ([6]; Platelet, washed human platelets, 1 μg/mL collagen) was roughly 2500 nM and the “Potency in inhibiting collagen-induced platelet aggregation relative to compound 5” value ([6]; comparison with ref Shih et al., 2021) was “twice as high”.
